The compounds below were run against hQC (Homo sapiens, UniProt Q16769) (assay: Inhibitor assay for glutaminyl cyclase activity (fluorometric, H-Gln-βNA / H-Gln-AMC)). Details: read-out: IC50.
Assay type: biochemical
Procedure, shortened: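 Coupled fluorometric assay at 30 °C with pyroglutamyl aminopeptidase, in Tris/HCl pH 8.0 with EDTA, substrate H-Gln-βNA (0.2 mM; ex/em 320/410 nm) or H-Gln-AMC (ex/em 380/460 nm), initiated by QC. Screening: 4 mM inhibitor, substrate at 1 KM; Ki from progress curves fitted to competitive inhibition.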

Sequence of hQC (Q16769 29-361): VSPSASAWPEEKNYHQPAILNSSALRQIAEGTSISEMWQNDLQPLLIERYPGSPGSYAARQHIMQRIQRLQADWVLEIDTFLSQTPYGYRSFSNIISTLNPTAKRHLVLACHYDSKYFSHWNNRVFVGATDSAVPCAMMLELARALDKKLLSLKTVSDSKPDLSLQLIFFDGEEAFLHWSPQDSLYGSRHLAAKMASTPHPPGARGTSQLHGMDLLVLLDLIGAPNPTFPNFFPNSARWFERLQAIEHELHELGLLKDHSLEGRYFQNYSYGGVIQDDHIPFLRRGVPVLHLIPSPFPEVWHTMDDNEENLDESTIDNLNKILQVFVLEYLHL

IC50 | SMILES
0.04 µM | CCC1=C(O)C(=O)N(c2ccc3[nH]cnc3c2)C1c1coc2ccc(C)cc2c1=O (stereo not drawn) [Compound 428, 1-(1H-Benzoimidazol-5-yl)-4-ethyl-3-hydroxy-5-(6-methyl-4-oxo-4H-chromen-3-yl)-1,5-dihydro-pyrrol-2-one]
9.94 µM | CC1=C(O)C(=O)N(c2ccc3[nH]cnc3c2)C1c1cccc(C)c1 (stereo not drawn) [Compound 416, 1-(1H-Benzoimidazol-5-yl)-3-hydroxy-4-methyl-5-m-tolyl-1,5-dihydro-pyrrol-2-one]
4.09 µM | CC1=C(O)C(=O)N(c2ccc3[nH]cnc3c2)C1c1c(F)c(F)cc(F)c1F (stereo not drawn) [Compound 393, 1-(1H-Benzoimidazol-5-yl)-3-hydroxy-4-methyl-5-(2,3,5,6-tetrafluoro-phenyl)-1,5-dihydro-pyrrol-2-one]
2.47 µM | CCCCCC(=O)C1=C(O)C(=O)N(c2ccc3[nH]cnc3c2)C1C1CCOC1 (stereo not drawn) [Compound 274, 1-(1H-Benzoimidazol-5-yl)-4-hexanoyl-3-hydroxy-5-(tetrahydro-furan-3-yl)-1,5-dihydro-pyrrol-2-one]
6.25 µM | Cn1cc(C2C(c3c[nH]c4ccccc34)=C(O)C(=O)N2c2ccc3[nH]cnc3c2)c2ccccc21 (stereo not drawn) [Compound 329, 1-(1H-Benzoimidazol-5-yl)-3-hydroxy-4-(1H-indol-3-yl)-5-(1-methyl-1H-indol-3-yl)-1,5-dihydro-pyrrol-2-one]
4.9 µM | CC(C)C1=C(O)C(=O)N(CCCn2ccnc2)C1c1ccccn1 (stereo not drawn) [Compound 69, 3-Hydroxy-1-(3-imidazol-1-yl-propyl)-4-isopropyl-5-pyridin-2-yl-1,5-dihydro-pyrrol-2-one]
0.04 µM | CC(C)C1=C(O)C(=O)N(CCCn2ccnc2)C1Cc1ccccc1 (stereo not drawn) [Compound 68, 5-Benzyl-3-hydroxy-1-(3-imidazol-1-yl-propyl)-4-isopropyl-1,5-dihydro-pyrrol-2-one]

The next lines start with the compound.

SMILES | IC50
O=C1C(O)=C(c2ccc(O)cc2)C(C2CC2)N1CCCn1ccnc1 (stereo not drawn) [Compound 175, 5-Cyclopropyl-3-hydroxy-4-(4-hydroxy-phenyl)-1-(3-imidazol-1-yl-propyl)-1,5-dihydro-pyrrol-2-one] | 0.04 µM
Cc1ccc2occ(C3C(c4c[nH]c5ccccc45)=C(O)C(=O)N3c3ccc4[nH]cnc4c3)c(=O)c2c1 (stereo not drawn) [Compound 346, 1-(1H-Benzoimidazol-5-yl)-3-hydroxy-4-(1H-indol-3-yl)-5-(6-methyl-4-oxo-4H-chromen-3-yl)-1,5-dihydro-pyrrol-2-one] | 4.99 µM
O=C1C(O)=C(c2c[nH]c3ccccc23)C(Cc2ccccc2)N1CCCn1ccnc1 (stereo not drawn) [Compound 134, 5-Benzyl-3-hydroxy-1-(3-imidazol-1-yl-propyl)-4-(1H-indol-3-yl)-l 5-dihydro-pyrrol-2-one] | 0.4 µM
Cc1ccc2occ(C3C(C(=O)C(C)(C)C)=C(O)C(=O)N3c3ccc4[nH]cnc4c3)c(=O)c2c1 (stereo not drawn) [Compound 382, 1-(1H-Benzoimidazol-5-yl)-4-(2,2-dimethyl-propionyl)-3-hydroxy-5-(6-methyl-4-oxo-4H-chromen-3-yl)-1,5-dihydro-pyrrol-2-one] | 4 µM
Cc1ccc(C2C(C(C)C)=C(O)C(=O)N2CCCn2ccnc2)cc1 (stereo not drawn) [Compound 54, 3-Hydroxy-1-(3-imidazol-1-yl-propyl)-4-isopropyl-5-p-tolyl-1,5-dihydro-pyrrol-2-one] | 0.4 µM
O=C1C(O)=C(c2ccc(O)cc2)C(c2cccs2)N1CCCn1ccnc1 (stereo not drawn) [Compound 173, 3-Hydroxy-4-(4-hydroxy-phenyl)-1-(3-imidazol-1-yl-propyl)-5-thiophen-2-yl-1,5-dihydro-pyrrol-2-one] | 0.04 µM
O=C1C(O)=C(c2cccc(O)c2)C(c2cc[nH]n2)N1CCCn1ccnc1 (stereo not drawn) [Compound 8, 3-Hydroxy-4-(3-hydroxy-phenyl)-1-(3-imidazol-1-yl-propyl)-5-(1H-pyrazol-3-yl)-1,5-dihydro-pyrrol-2-one] | 9.4 µM
CC1=C(O)C(=O)N(CCCn2ccnc2)C1c1ccccc1 (stereo not drawn) [Compound 34, 3-Hydroxy-1-(3-imidazol-1-yl-propyl)-4-methyl-5-phenyl-1,5-dihydro-pyrrol-2-one] | 1.3 µM

Source: patent publication US8278345B2, “Inhibitors of glutaminyl cyclase” (Probiodrug AG, priority 2006, dated 2012)
